Activity calls are given as the source filed them.
Legend:
[1] = target: T1, Ubiquitin-conjugating enzyme E2 N (Homo sapiens, UniProt P61088); format: functional;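 also: Dose-response confirmation in a TR-FRET assay detecting UBC13-driven polyubiquitin chain formation, inhibition measured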
T1 sequence (P61088 whole entry): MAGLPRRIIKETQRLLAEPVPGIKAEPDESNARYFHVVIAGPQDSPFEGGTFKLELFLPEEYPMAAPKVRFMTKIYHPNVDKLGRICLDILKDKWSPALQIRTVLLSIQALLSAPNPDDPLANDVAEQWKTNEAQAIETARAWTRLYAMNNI

[2] = target: FAD-linked sulfhydryl oxidase ALR (Homo sapiens, UniProt P55789); test: ALR-catalysed DTT oxidation blockers – biochemical, H2O2 detection, luminescence, cherry-pick, dose response (AID 493248)
Chain of FAD-linked sulfhydryl oxidase ALR (P55789 whole entry, the tested form may be a part): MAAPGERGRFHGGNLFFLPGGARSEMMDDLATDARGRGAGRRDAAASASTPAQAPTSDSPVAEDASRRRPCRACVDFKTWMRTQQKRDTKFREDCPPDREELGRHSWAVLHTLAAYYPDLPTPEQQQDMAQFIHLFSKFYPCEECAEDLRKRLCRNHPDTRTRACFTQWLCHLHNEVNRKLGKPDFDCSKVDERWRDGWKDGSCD

[3] = target: T2, RNA-binding protein pos-1 (Caenorhabditis elegans, UniProt G5EF15); test: disruptors of C. elegans POS-1 RNA interaction – biochemical, fluorescence polarization, dose response (AID 1964);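 also: purified POS-1 fused to maltose binding protein made in E. coli; potency of compounds blocking POS-1 binding to fluorescent RNA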
T2 sequence (G5EF15 whole entry): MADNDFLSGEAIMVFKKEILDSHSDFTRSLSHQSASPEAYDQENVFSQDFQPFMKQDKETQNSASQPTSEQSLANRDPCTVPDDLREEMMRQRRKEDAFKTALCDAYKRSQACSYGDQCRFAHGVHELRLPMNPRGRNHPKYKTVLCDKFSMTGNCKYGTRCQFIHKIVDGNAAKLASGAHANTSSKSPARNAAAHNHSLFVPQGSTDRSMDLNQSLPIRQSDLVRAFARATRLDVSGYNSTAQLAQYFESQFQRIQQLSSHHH

[4] = target: T3, Zinc finger protein mex-5 (Caenorhabditis elegans, UniProt Q9XUB2); test: potency of MEX-5 RNA-binding blockers – biochemical, C. elegans, fluorescence polarization, dose response (AID 1960)
T3 sequence (Q9XUB2 whole entry): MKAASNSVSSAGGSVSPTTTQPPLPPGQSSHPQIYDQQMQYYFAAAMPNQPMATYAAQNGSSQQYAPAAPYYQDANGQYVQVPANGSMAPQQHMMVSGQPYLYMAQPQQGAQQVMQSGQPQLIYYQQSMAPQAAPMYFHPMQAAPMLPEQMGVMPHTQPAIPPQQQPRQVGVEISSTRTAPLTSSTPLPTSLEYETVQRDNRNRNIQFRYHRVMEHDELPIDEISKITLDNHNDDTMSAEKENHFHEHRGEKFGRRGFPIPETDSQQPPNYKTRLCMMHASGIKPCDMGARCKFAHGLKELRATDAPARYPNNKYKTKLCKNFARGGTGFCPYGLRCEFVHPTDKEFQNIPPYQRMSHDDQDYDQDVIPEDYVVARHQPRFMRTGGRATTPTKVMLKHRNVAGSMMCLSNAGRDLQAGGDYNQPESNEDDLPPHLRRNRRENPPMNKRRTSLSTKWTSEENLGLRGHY

[5] = target: Cytochrome P450 3A4 (Homo sapiens, UniProt P08684);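 also: CYP3A4 tested as one member of a cytochrome P450 panel screen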
Chain of Cytochrome P450 3A4 (P08684 whole entry): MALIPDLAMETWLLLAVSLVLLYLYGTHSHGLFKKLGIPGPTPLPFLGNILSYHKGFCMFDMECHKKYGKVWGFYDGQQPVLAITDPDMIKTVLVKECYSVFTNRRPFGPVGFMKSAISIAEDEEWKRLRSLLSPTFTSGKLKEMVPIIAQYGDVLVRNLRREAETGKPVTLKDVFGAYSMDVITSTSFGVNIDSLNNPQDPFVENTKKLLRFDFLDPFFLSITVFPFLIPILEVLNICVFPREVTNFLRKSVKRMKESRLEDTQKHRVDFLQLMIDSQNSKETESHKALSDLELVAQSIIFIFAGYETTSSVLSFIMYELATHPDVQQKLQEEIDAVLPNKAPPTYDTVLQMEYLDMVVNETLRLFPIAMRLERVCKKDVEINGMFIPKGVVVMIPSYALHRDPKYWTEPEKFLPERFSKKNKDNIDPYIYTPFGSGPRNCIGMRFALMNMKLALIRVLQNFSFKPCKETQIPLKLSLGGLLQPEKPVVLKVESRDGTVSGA

[6] = target: T4, Rac GTPase-activating protein 1 (Homo sapiens, UniProt Q9H0H5); test: blockers of MgcRacGAP-driven Rac1 GTP hydrolysis – biochemical, ADP Hunter fluorescence, primary and confirmatory, confirmation (AID 624330); format: functional
T4 sequence (Q9H0H5 whole entry): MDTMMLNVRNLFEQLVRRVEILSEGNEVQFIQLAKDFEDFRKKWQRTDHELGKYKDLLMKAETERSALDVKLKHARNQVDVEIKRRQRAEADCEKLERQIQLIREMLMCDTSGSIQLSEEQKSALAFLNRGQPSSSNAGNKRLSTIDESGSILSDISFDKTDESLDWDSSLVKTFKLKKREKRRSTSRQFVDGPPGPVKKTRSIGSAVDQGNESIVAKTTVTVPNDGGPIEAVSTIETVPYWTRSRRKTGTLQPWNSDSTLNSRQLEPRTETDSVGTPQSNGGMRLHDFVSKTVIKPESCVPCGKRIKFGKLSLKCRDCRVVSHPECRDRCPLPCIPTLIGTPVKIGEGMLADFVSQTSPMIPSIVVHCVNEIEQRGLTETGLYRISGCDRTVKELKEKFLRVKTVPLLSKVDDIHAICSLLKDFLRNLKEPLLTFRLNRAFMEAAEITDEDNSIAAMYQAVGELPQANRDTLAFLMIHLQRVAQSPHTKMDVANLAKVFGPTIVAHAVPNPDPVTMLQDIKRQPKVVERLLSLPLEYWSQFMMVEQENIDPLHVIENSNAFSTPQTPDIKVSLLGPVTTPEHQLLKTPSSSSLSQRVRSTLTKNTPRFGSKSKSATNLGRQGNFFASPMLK

[7] = target: Large T antigen (Simian virus 40, UniProt P03070); format: functional, Betapolyomavirus macacae;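 also: Confirmatory-stage PubChem screen for compounds that inhibit SV40 T antigen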
Chain of Large T antigen (P03070 whole entry): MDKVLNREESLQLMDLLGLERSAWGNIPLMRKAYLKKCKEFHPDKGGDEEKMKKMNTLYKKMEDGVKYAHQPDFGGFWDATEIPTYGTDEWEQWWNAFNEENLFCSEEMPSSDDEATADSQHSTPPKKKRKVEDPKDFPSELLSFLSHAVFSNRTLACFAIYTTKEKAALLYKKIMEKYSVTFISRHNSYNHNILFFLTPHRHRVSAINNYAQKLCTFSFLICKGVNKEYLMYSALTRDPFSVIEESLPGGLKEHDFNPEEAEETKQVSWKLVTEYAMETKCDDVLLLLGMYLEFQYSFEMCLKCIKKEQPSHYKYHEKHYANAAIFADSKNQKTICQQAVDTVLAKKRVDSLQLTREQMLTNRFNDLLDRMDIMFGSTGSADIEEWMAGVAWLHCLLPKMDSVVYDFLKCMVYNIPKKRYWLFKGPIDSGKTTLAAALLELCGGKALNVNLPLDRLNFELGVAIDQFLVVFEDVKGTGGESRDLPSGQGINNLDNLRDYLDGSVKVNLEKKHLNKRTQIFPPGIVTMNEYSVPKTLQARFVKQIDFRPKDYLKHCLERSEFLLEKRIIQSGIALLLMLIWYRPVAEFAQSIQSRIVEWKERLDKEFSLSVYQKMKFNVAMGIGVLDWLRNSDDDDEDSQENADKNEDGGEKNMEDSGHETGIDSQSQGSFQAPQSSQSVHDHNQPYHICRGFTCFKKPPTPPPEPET

[8] = tested on: INS1; test: INS-1E survival protection against cytokine death – cell-based, luminescence, retest, dose response (AID 449756); format: functional; conditions: Rattus norvegicus;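 also: cell death triggered by IL-1 beta plus TNF-alpha plus IFN-gamma mixture; protective hits raise ATP signal compared with cytokine alone wells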
[9] = target: T5, Polyadenylate-binding protein 1 (Homo sapiens, UniProt P11940); test: MLLE binding blockers, Cy5 peptide tracer – biochemical, fluorescence polarization, Cy5-PAM2 peptide, secondary, miRNA deadenylation inhibitor project, dose response (AID 602260); format: functional; conditions: read-out: IC50_Mean
T5 sequence (P11940 whole entry, the tested form may be a part): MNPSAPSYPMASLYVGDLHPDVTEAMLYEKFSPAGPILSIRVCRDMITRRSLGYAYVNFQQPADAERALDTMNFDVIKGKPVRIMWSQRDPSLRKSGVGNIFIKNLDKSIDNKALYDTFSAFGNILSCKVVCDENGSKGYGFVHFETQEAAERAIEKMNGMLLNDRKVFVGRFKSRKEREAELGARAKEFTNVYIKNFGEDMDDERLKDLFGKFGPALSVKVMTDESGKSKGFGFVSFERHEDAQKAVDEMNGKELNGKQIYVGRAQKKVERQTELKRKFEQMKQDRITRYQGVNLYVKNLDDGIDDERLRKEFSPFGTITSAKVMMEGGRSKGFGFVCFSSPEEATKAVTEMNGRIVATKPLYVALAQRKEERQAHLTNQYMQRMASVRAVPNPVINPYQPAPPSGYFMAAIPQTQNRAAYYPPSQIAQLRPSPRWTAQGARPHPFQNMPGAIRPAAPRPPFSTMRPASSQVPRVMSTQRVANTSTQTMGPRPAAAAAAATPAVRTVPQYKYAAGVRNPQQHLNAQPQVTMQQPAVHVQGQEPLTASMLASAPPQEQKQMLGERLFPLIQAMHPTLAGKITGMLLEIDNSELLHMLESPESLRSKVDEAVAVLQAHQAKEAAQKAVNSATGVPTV

[10] = target: T5, Polyadenylate-binding protein 1; test: MLLE domain peptide-binding blockers, IC50 – biochemical, fluorescence polarization, FITC-PAM2 peptide, dose response (AID 602259); format: functional; conditions: read-out: IC50_Mean
[11] = luciferase reporter signal suppression in cells – H4 neuroglioma cells, luminescence, dose response (AID 1990); format: functional, cell-based
[12] = Luminescence Cell-Based Dose Response HTS to Identify Inhibitors of 5'UTR Stem-Loop Driven Prion Protein mRNA Translation in H4 Neuroglioblastoma Cells. [Related pubchem assays: 1827 (Project Summary), 1813 (Primary HTS)]; format: functional
[13] = alpha-synuclein stem-loop luciferase translation blockers – H4 neuroglioma cells, luminescence, confirmation (AID 1988); format: functional, cell-based
[14] = target: T6, Replicative DNA helicase DnaB (Mycobacterium tuberculosis, UniProt P9WMR3); test: DnaB intein splicing inhibitors, dose response, biochemical, cell-free fluorescence (AID 449749); format: functional
T6 sequence (P9WMR3 whole entry): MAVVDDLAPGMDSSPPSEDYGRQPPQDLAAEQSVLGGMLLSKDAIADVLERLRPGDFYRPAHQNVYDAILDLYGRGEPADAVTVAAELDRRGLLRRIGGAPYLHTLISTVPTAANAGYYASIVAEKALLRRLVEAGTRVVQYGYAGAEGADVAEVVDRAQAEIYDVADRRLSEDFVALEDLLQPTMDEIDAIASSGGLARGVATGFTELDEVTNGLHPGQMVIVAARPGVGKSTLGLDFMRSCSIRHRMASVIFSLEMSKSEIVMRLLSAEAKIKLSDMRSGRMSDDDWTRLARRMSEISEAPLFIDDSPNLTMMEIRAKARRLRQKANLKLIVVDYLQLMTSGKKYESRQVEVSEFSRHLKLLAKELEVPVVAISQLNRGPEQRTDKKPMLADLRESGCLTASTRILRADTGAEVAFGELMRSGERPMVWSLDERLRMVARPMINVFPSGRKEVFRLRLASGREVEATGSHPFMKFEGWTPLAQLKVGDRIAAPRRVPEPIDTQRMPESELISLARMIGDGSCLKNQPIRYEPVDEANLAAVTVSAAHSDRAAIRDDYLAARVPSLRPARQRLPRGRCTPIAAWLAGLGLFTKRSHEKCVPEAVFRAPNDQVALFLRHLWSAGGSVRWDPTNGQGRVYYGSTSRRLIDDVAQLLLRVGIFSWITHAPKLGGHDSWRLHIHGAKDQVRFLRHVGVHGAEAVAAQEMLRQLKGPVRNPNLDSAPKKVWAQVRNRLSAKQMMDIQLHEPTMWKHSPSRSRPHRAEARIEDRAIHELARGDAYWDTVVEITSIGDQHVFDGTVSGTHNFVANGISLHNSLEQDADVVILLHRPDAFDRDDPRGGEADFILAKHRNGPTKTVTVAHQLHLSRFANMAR

[15] = target: T7, Protein RecA (Mycobacterium tuberculosis, UniProt P9WHJ3); test: Fluorescence Cell-Free Homogeneous Dose Retest to Identify Inhibitors of RecA-Intein Splicing Activity. [Related pubchem assays (depositor defined):AID2097, AID2223, AID489010, AID492950]; format: functional
T7 sequence (P9WHJ3 whole entry): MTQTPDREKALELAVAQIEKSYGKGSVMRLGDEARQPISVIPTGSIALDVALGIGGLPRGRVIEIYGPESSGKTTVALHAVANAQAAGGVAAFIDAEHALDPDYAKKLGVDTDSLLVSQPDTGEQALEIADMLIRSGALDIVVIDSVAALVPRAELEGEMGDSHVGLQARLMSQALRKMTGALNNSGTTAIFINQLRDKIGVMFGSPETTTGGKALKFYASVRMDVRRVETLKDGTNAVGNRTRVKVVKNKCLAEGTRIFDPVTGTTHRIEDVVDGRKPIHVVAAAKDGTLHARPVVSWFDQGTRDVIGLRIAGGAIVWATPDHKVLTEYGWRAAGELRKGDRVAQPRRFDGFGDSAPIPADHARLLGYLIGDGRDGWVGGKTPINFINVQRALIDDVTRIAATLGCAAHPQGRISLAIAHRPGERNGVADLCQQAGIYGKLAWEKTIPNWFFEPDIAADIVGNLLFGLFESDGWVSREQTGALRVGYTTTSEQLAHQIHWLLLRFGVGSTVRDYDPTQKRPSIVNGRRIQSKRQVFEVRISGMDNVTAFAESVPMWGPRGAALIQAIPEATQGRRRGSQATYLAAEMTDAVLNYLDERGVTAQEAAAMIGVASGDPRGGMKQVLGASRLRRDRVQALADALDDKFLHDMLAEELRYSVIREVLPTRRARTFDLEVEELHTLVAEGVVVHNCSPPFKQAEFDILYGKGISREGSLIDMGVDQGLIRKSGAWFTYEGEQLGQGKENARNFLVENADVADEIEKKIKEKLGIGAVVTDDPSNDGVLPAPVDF

[16] = cells; format: functional
[17] = Trypanosoma cruzi growth suppression in host cells – NIH3T3 host cells, beta-gal luminescence, confirmation (AID 2044); format: functional, cell-based;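 also: intracellular parasites grown in NIH/3T3 mouse fibroblasts as host cells; luminescent beta-galactosidase reporter signal from transgenic T. cruzi replicating inside host cells; inhibitors lower the luminescence signal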
[18] = NIH3T3 cell viability loss – ATP luminescence, mouse fibroblasts, counter-screen, dose response (AID 2010); format: functional, cell-based;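 also: cells exposed to compound for about 90 hours before reading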

Compound: O=C(CCCn1c(=S)[nH]c2ccsc2c1=O)NCCc1ccccc1
- IC50 [1]: > 20 µM (inactive)

Compound: CC(=O)Nc1ccc(Nc2nc3ccccc3nc2NS(=O)(=O)c2ccccc2)cc1
- AC50 [2]: 0.13 µM (active)

Compound: Cc1sc(/C=C2\C(=O)ON=C2c2ccccc2)cc1Br
- EC50 [3]: 24.1 µM (inconclusive)
- EC50 [4]: 7.46 µM (inconclusive)

Compound: C=CCn1c(SCc2ccc(Cl)cc2)nc2cc(C(=O)N3CCC(C(N)=O)CC3)ccc2c1=O
- IC50 [1]: > 20 µM (inactive)

Compound: Cc1ccc(N2C(=O)/C(=C/c3ccc(CN(CCC#N)S(C)(=O)=O)o3)C(=O)NC2=S)cc1C
- EC50 [3]: 15.5 µM (active)
- EC50 [4]: 9.89 µM (active)
- AC50 [5]: 22.4 µM (inconclusive)

Compound: CC(=O)Nc1ccc(S(=O)(=O)Nc2ccc(Nc3ccccc3)cc2)cc1
- AC50 [2]: 0.268 µM (active)
- IC50 [6]: 70.1 µM (active)

Compound: Cc1ccc(S(=O)(=O)Nc2nc(C)cc(N/N=C/c3ccc(O)cc3)n2)cc1
- IC50 [7]: 10.6 µM (active)

Compound: COc1cc(/C=C2\NC(=S)N(C)C2=O)ccc1O
- IC50 [7]: 3.22 µM (active)

Compound: Clc1ccc2nc(N3CCCCC3)[nH]c2c1
- AC50 [2]: 4.04 µM (active)

Compound: COc1cc(C(=O)Nc2ccc(O)cc2)ccc1OC(C)=O
- IC50 [7]: 6.12 µM (active)

Compound: Cc1cc2c(Nc3ccc(O)cc3)ncnc2s1
- IC50 [7]: 5.5 µM (active)

Compound: O=C(NNC(=O)c1ccccc1O)c1ccco1
- EC50 [3]: 24 µM (active)
- EC50 [4]: 19.4 µM (active)

Compound: CCc1cc(SC#N)cc(C)c1NC(=O)CCl
- IC50 [7]: > 100 µM (active)
- AC50 [8]: 5.76 µM (active)
- IC50 [9]: > 66 µM (inactive)
- IC50 [10]: > 66 µM (inactive)

Compound: O=C(Nc1ccccc1N1CCCC1)c1ccc(N2CCCC2=O)cc1
- AC50 [2]: 1.55 µM (active)

Compound: O=C(NCC(c1ccco1)N1CCc2ccccc21)c1ccccc1 (centres undefined)
- AC50 [2]: 1.21 µM (active)

Compound: O=C(NCc1ccccn1)c1ccc2c(c1)N(Cc1ccccc1)CCS2
- AC50 [2]: 0.511 µM (active)

Compound: CCN(CC)C(=O)CSc1nnc2nnc3cc(OC)ccc3n12
- EC50 [11]: 14.9 µM (active)
- EC50 [3]: 7.7 µM (active)
- EC50 [12]: > 120 µM (not active)
- EC50 [4]: 5.43 µM (active)
- EC50 [13]: 10.8 µM (active)
- AC50 [14]: > 380 µM (inactive)
- EC50 [15]: 128 µM (active)

Compound: N#CC1=C(N)OC2=C(C(=O)CCC2)C12C(=O)N1CCCc3cccc2c31 (centres undefined)
- EC50 [3]: > 300 µM (not active)
- EC50 [4]: > 300 µM (not active)

Compound: O=C(CN1CCOCC1)N/N=C/c1ccc(-c2ccc(Br)cc2)o1
- IC50 [16]: > 50 µM (active)

Compound: O=C(CCN1C(=O)C2CC=C(Cl)CC2C1=O)N1CCCCC1 (centres undefined)
- EC50 [3]: 29.5 µM (active)
- EC50 [4]: 18.1 µM (active)

Compound: Cc1nnc(N/N=C/c2ccc(Br)cc2)n1N
- IC50 [16]: 2.75 µM (active)

Compound: COc1cc(/C=N/N(C)C)ccc1OC(=O)c1cccs1
- IC50 [16]: 24.2 µM (active)

Compound: O=C(NCC(c1cccnc1)N1CCN(c2ccc(F)cc2)CC1)c1ccco1 (centres undefined)
- EC50 [17]: 0.46 µM (active)
- EC50 [18]: > 60 µM (inconclusive)
- AC50 [2]: 4.66 µM (active)

Compound: Cc1ccc(S(=O)(=O)N2CCOCC2)cc1NC(=O)CN(C)C1CCS(=O)(=O)C1 (centres undefined)
- EC50 [3]: > 300 µM (not active)
- EC50 [4]: > 300 µM (not active)

Compound: CC1CN(S(=O)(=O)c2cccc(C(=O)N(Cc3nnc(-c4ccccc4Cl)o3)C3CC3)c2)CC(C)O1 (centres undefined)
- IC50 [1]: > 20 µM (inactive)

Compound: CCN(CC)c1ccc(NC(=O)c2cccnc2)cc1
- IC50 [7]: 13.5 µM (active)
- AC50 [2]: 0.327 µM (active)

Compound: CN1CCCc2cc3c(C(F)(F)F)cc(=O)oc3nc21
- EC50 [3]: 24.9 µM (active)
- EC50 [4]: 25.7 µM (inconclusive)

Compound: COc1ccc(C(=O)NN=C(C)/C=C(\O)c2ccccc2)cc1
- IC50 [16]: > 50 µM (active)
